The source of these data is a melting point compilation (Tetko et al.; mined from patent text by program, amines drawn as free bases though some values may be those of a salt).

With `N#Cc1cccnc1-n1cc(-c2ccc(Oc3ccccc3)cc2)c2c(N)ncnc21`, the melting point is 242 °C.

In turn, `COC(=O)c1ccc2cc(-c3cccc(OC)c3)oc2c1` displayed a melting point of 150 to 152 °C.

In the case of `Cn1c(=O)c(-c2ccc(Cl)cc2Cl)cc2c3cc(-c4c[nH]nn4)ccc3n(C)c21`, the melting point was 274 to 275 °C.

The compound `COc1cc(Nc2nccc(Nc3ccc(CC(=O)OCc4ccccc4)cc3)n2)cc(OC)c1OC` gave a melting point of 149 °C.

`Cc1c(C(=O)O)nc2c(=O)[nH]c3cc(C(F)(F)F)ccc3n12` had a melting point of over 250 °C.

As for `CCC(CC)n1c(=O)ccc2cnc(Nc3ccccc3)nc21`, the melting point was in the range of 116 to 118 °C.

Consider `CCn1ncc2c(Cl)c3ccc(OC)cc3nc21`, for which the melting point lay within 95 to 98 °C.

On to `CN(C)Cc1cccc(OCCCNc2nc(Cc3ccccc3)n[nH]2)c1`, for which the melting point was 140 to 141 °C.

`O=C1OC(=O)c2c1cccc2N1C(=O)CCCC1=O` yielded a melting point of 234 to 236 °C.

`Nc1ccccc1-c1n[nH]c(=S)n1N` gave a melting point of 191 to 192 °C.

Consider `CCCc1c(O)c(C(C)=O)cc2ccc(C(=O)OC)nc12`, for which the melting point was 110 to 111 °C.

In turn, `CC(C)(C)c1cc(-c2ccc(NC(=O)c3ccccc3C(=O)O)cc2)cc(C(C)(C)C)c1O` displayed a melting point of 196 to 198 °C.

Consider `Cc1oc(-c2ccccc2)nc1COc1ccc(Cn2cc(C(=O)O)c(-c3cccs3)n2)cc1`, for which the melting point lay within 204 to 205 °C.

Turning to `c1ccc(Cc2c[nH]c3ccccc23)cc1`, the melting point fell in the range of 108 to 110 °C.

Compound `CC1(C)OC(=S)Nc2ccc(-c3coc(C#N)c3)cc21` gave a melting point of 214 to 216 °C.

Regarding `CNc1scc(C)c1C(=O)c1ccccc1Cl`, the melting point fell in the range of 132 to 134 °C.

For the compound `OC1(Cl)C=CC=CC1(O)Cl` (configuration not stated), the melting point is 113 to 114 °C.

Regarding `CCNc1nc(C)cc(O)n1`, the melting point was determined as 176 °C.

In turn, `CC(C)Oc1cc(CCC(=O)NS(C)(=O)=O)n(Cc2ccc(Cl)cc2Cl)n1` had a melting point of 104 to 105 °C.

As for `CC(C)(O)Cn1c(COc2ccccc2)nc2c(N)nc3ccccc3c21`, the melting point is 200 to 201 °C.

As to `CCOC(=O)C=C(c1ccc(I)cc1)c1ccc(I)cc1`, the melting point was in the range of 95 to 100 °C.

As to `O=C(O)CC(C(=O)O)C(CSc1nc2ccccc2s1)C(=O)O` (configuration not stated), the melting point was in the range of 188 to 190 °C.

Turning to `CC1(C)C(=O)C(C)(C)c2cc([N+](=O)[O-])c([N+](=O)[O-])cc21`, the melting point was 212 to 218 °C.

`FC(F)c1nc2ccccc2n1-c1nc(Oc2ccccc2)nc(N2CCOCC2)n1` displayed a melting point of 228 to 231 °C.

Consider `Clc1ccc(CCN2CCC3(CC2)Oc2ccccc2Cn2cccc23)cc1`, for which the melting point was in the range of 116 to 118 °C.

`COC(C)Cc1nc2c(N)nc3ccccc3c2n1CC(C)C` (configuration not stated) came in with a melting point of 139 to 141 °C.

As for `NC(=O)c1cnc(N)c([N+](=O)[O-])c1`, the melting point is 289 to 290 °C.

For the compound `CNC(=O)CN1CCc2cc(Nc3ncc(Cl)c(Nc4ccccc4OC)n3)c(OC)cc2CC1`, the melting point is 81 to 95 °C.

The compound `O=C1Nc2cc(F)ccc2Nc2ccsc21` gave a melting point of 225 to 230 °C.

Turning to `c1ccc2c3cncc-3cncc2c1`, the melting point was in the range of 220 to 221 °C.

With `COc1ccc2c(c1)C13CCCCC1(CC2)CCN3C` (configuration not stated), the melting point lay in the range of 100 to 102 °C.

For the compound `O=C(O)CC1CCC(N2CCC(CNc3ccncc3)CC2)CC1` (configuration not stated), the melting point worked out at 260 °C.

The compound `COc1ccc(C(=O)NC2CCCCC2)c2c1OCC2CC(=O)O` (configuration not stated) returned a melting point of 246 to 247 °C.

In turn, `O=C(Nc1ccc(Oc2cc(Cl)ncn2)cc1)Nc1ccc(Cl)c(C(F)(F)F)c1` yielded a melting point of 180 to 181 °C.

Regarding `O=S(=O)(Cl)c1ccc(Nc2nccc(-c3ccc(C(F)(F)F)cc3)n2)cc1`, the melting point fell in the range of 186 to 188 °C.

The compound `COC(=O)CCCCCOc1ccc(NC(=O)CCCCCOCc2ccccc2)cc1` showed a melting point of 64 to 65.6 °C.

`Fc1ccc(-c2ccc(C3OCCO3)cc2)cc1F` showed a melting point of 89 to 91 °C.

In turn, `COc1cc(C(=O)O)ccc1Cc1cn(C)c2ccc(CC(C)C(=O)NCC3CCCC3)cc12` (configuration not stated) yielded a melting point of 103 to 109 °C.

Consider `CCOC(=O)c1cn(C2CC2)c2c(C#N)c(N3C[C@@H]4CCCN[C@@H]4C3)c(F)cc2c1=O`, for which the melting point was 209 to 210 °C.

Compound `C=Cc1cnc2c([N+](=O)[O-])cccc2c1` displayed a melting point of 116 to 117 °C.

Take `CC(=O)c1nc(-c2ccccc2)oc1C`: the melting point lay within 74 to 76 °C.

In turn, `NS(=O)(=O)c1cc(CCNC(=O)C=Cc2cccs2)ccc1OCC1CCCO1` (configuration not stated) showed a melting point of 180 to 185 °C.

The compound `CCn1ncc2c3noc(C)c3cnc21` yielded a melting point of 181 to 182 °C.

In turn, `CCC12CCC(=O)C=C1c1c(cc(OCC(=O)O)c(Cl)c1Cl)C2` (configuration not stated) registered a melting point of 237 to 238 °C.

For the compound `Cc1ccc(CNC(=S)NCCO)c(C)c1`, the melting point fell in the range of 101 to 103 °C.

The compound `CCCCCCCNC(=O)Nc1ccc(N(C)C)cc1C(=O)NCC1CC2CCC(C1)N2C(c1ccccc1)c1ccccc1` (configuration not stated) registered a melting point of 195 °C.

`COc1ccc2cc(-c3ccc(-n4nc(C)c(C)n4)c(Cl)c3)c(=O)oc2c1`: the melting point worked out at 170 °C.

As to `O=C(O)COCC(=O)N1CCC(C(c2ccccc2)c2ccccc2)CC1`, the melting point is 140 to 141 °C.

In turn, `COC(=O)c1scc2nc(SCc3cc(OC)ccn3)[nH]c12` yielded a melting point of 156 to 160 °C.

`Cn1ncc2c1-c1c(Sc3ccccc3)sc(C(N)=O)c1CC2`: the melting point fell in the range of 140 to 141 °C.

In the case of `COc1ccc(C2CCN(C(=O)N3CCC(Nc4ccc(CCNC[C@H](O)COc5ccc(O)cc5)cc4)CC3)CC2)cc1OC1CCCC1`, the melting point is 92 to 95 °C.

Regarding `CN1CCC(OC2c3ccccc3CCn3c2nc(I)c3C(N)=O)CC1` (configuration not stated), the melting point was 85 °C.

The compound `COCc1nccc(=O)[nH]1` came in with a melting point of 125 to 127 °C.

`CCOc1nc(O)cc(CCl)n1`: the melting point was 159 to 161 °C.

As for `O=CN(O)C(CCCO)CS(=O)(=O)c1ccccc1Oc1ccc(Cl)cc1` (configuration not stated), the melting point was 127 to 129 °C.

Compound `CC(C)Oc1ccc(-n2c(C(=O)NC(C)(C)C(=O)O)c(Cl)c3cc(Oc4ccc(C(F)(F)F)cc4)ccc32)cc1` returned a melting point of 187 to 188 °C.

Consider `Cc1nnc(-c2ccc3occ(-c4cccc(C#N)c4)c3c2)o1`, for which the melting point was 204 to 205 °C.

On to `O=C(O)Cn1c(=S)sc2ccccc21`, for which the melting point was in the range of 187 to 189 °C.

Consider `CCCCCCCCCCCCCCCCOC(=O)Cl`, for which the melting point is over 230 °C.

As to `O=C(O)c1ccc(CCNC(=O)C2Cc3ccccc3N2S(=O)(=O)c2ccc(-c3cccc(C(F)(F)F)c3)cc2)cc1` (configuration not stated), the melting point amounted to 106 °C.

`CCOC(=O)C(C)(C)S(=O)(=O)c1ccc(OC)cc1` had a melting point of 196 °C.

The compound `CCCc1cc(=O)on1C(=O)c1ccc(Cl)cc1Cl` showed a melting point of 63 to 65.5 °C.

Regarding `CCCN(CC(C)n1c(CCOC)nc2c(N)nc3ccccc3c21)C(N)=S` (configuration not stated), the melting point fell in the range of 172 to 173 °C.

The compound `O=NN1CCc2cc(Cl)ccc21` gave a melting point of 120 to 122 °C.

`CC(=O)Nc1cc2c3c(cccc3c1N1CCCC1)C(=O)N(O)C2=O` gave a melting point of 280 to 284 °C.

The compound `Cc1noc2cccc(OCC3CO3)c12` (configuration not stated) displayed a melting point of 51 to 53 °C.

For `CCOc1nn(C(=S)Oc2ccccc2)c(=O)n1C`, the melting point amounted to 123 °C.

In the case of `CCCCCCCNC(=O)Nc1ccc(N(C)C)cc1C(=O)NC(C)(C)C1CCN(C(c2ccccc2)c2ccccc2)CC1`, the melting point came to 190 °C.

Take `Cc1ccc(-c2cc(C(F)(F)F)n3cnc(-c4cccnc4)c3n2)cc1C(F)(F)F`: the melting point came to 236 °C.

Consider `CON=C(C(=O)O)c1nsc(NC=O)n1`, for which the melting point is 185 to 186 °C.

Regarding `CC1(C)OC(=O)C(=[N+]=[N-])C(=O)O1`, the melting point was 93 to 94 °C.

As to `COCOc1cc(OC)c(OC)cc1-c1c(C(=O)OC)nnc(C(=O)OC)c1-c1ccc(OC)c(OC)c1`, the melting point lay in the range of 131 to 133 °C.

As for `COC(=O)CNC(=O)c1cc(Cl)nc(Cl)c1`, the melting point lay within 140 to 141 °C.

For the compound `CC(C)Cn1c(C(F)(F)F)nc2ccc(-n3c(=O)cc(C(F)(F)F)n(C)c3=O)cc21`, the melting point was in the range of 156 to 159 °C.

For the compound `CC(C)(C)C1OCC(S)(CCO)CO1` (configuration not stated), the melting point turned out to be 68 °C.

Regarding `CCCCCCCCOc1cc(OC)ccc1O`, the melting point is 36 to 38 °C.

Compound `CCOc1ccc(CC2(C)CNCCN2Cc2ccccc2)cc1OCC` (configuration not stated) had a melting point of 94 to 96 °C.

Consider `Cc1ccc2nc(N3CC[C@H](NCCO)C3)ccc2c1NC(=O)CC1CCCCC1`, for which the melting point is 204 to 207 °C.

On to `O=C(O)c1ccc(-c2ccccn2)cc1`, for which the melting point was 232 to 234 °C.

The compound `Oc1ccc2c(c1)CCCC(c1ccccc1)=C2c1ccc(OCCCCCSCCCC(F)(F)C(F)(F)F)cc1` came in with a melting point of 167 to 168 °C.

Compound `O=[N+]([O-])c1ccc(Oc2cncc(Cl)c2)cc1` returned a melting point of 80 to 82 °C.

Consider `Cc1ccc(-c2c(-c3ccc(S(C)(=O)=O)cc3)cnn(CC(F)(F)F)c2=O)cc1`, for which the melting point is 154 to 156 °C.

In turn, `CCCCS(=O)(=O)c1ccc(NN)cc1` had a melting point of 138 °C.

`COc1ccc(C2CC3(C)C(=O)CCC3C3CCC4=CC(=O)CCC4C23)cc1` (configuration not stated): the melting point fell in the range of 155 to 156 °C.

For the compound `CC(c1ccccc1OCCCC(=O)O)N(c1cc(F)ccc1F)S(=O)(=O)c1ccc(Cl)cc1` (configuration not stated), the melting point lay within 141 to 142 °C.

For the compound `CN(C)c1cc(CC(C#N)=CNc2ccccc2)cc(N(C)C)c1N(C)C`, the melting point is 179 to 181 °C.

`CCc1ccccc1-c1cn(C)cc(-c2cccc(C(F)(F)F)c2)c1=O`: the melting point is 123 to 125 °C.

Compound `O=C1Nc2ccccc2N2CCc3cc(Cl)cc1c32` had a melting point of 232 to 233 °C.

For `COc1ccc(/C=C/C(=O)c2cccc(O)c2)cc1OC`, the melting point is 138 to 139 °C.

For the compound `CCOc1c(C2=C(C(C)(C)C)C(C)(C)CO2)oc2ccc(OC)cc12`, the melting point lay within 60 to 61 °C.

`Cc1cc(OCCc2ccccc2)ccc1[N+](=O)[O-]` came in with a melting point of 70 to 72 °C.

The compound `CC1(C)OC(C=Cc2ccncc2)=CC1=O` yielded a melting point of 94 to 96 °C.
